Read-outs that look alike come from different tables or passages of the source.
What was measured:
Format in all cases: in vivo
[1] = test system: velvetleaf (Abutilon theophrasti); test: Test A pre-/postemergence: velvetleaf; conditions: Abutilon theophrasti, 240 h; for pest or weed control at 125 g/ha: 125 g ai/ha; for pest or weed control at 500 g/ha: 500 g ai/ha
Procedure, shortened: (§1)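 Injury is scored visually on a scale where 0 means no effect and 100 complete control, comparing treated with untreated plants after approximately ten greenhouse days. Both preemergence and postemergence applications are made at the same time.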

[2] = test system: lambsquarters (Chenopodium album); test: Test C pre-/postemergence: lambsquarters; conditions: Postemergence
Text: (§2) Seeds of plant species selected from blackgrass (Alopecurus myosuroides), bromegrass, downy (downy bromegrass, Bromus tectorum), foxtail, green (green foxtail, Setaria viridis), ryegrass, Italian (Italian ryegrass, Lolium multiflorum), winter wheat (Triticum aestivum), wild oat (Avena fatua), galium (catchweed bedstraw, Galium aparine), bermudagrass (Cynodon dactylon), surinam grass (Brachiaria decumbens), cocklebur (common cocklebur, Xanthium strumarium), corn (Zea mays), large crabgrass (Digitaria sanguinalis), woolly cupgrass (Eriochloa villosa), foxtail, giant (giant foxtail, Setaria faberii), goosegrass (Eleusine indica), johnsongrass (Sorghum halepense), kochia (Kochia scoparia), lambsquarters (Chenopodium album), morningglory (Ipomoea coccinea), nightshade (eastern black nightshade, Solanum ptycanthum), nutsedge, yellow (yellow nutsedge, Cyperus esculentus), pigweed (Amaranthus retroflexus), ragweed (common ragweed, Ambrosia elation), soybean (Glycine max), common (oilseed) sunflower (Helianthus annuus), Russian thistle (Salsola kali) and velvetleaf (Abutilon theophrasti) were planted into a blend of loam soil and sand and treated preemergence with test chemicals formulated in a non-phytotoxic solvent mixture which included a surfactant.
(§3) At the same time, plants selected from these crop and weed species and also barley (winter barley, Hordeum vulgare), canarygrass (Phalaris minor), chickweed (common chickweed, Stellaria media) windgrass (Apera spica-venti) and deadnettle (henbit deadnettle, Lamium amplexicaule) were planted in pots containing Redi-Earth® planting medium (Scotts Company, 14111 Scottslawn Road, Marysville, Ohio 43041) comprising spaghnum peat moss, vermiculite, wetting agent and starter nutrients and treated with postemergence applications of test chemicals formulated in the same manner. Plants ranged in height from 2 to 18 cm (1- to 4-leaf stage) for postemergence treatments.
(§4) Treated plants and controls were maintained in a greenhouse for 13 to 15 days, after which time all species were compared to controls and visually evaluated. Plant response ratings, summarized in Table C, are based on a scale of 0 to 100 where 0 is no effect and 100 is complete control. A dash (-) response means no test result.

[3] = test system: winter wheat (Triticum aestivum); test: Test C pre-/postemergence: winter wheat
Text: as §2, §3, §4

[4] = test system: nutsedge, yellow (yellow nutsedge, Cyperus esculentus); test: Test C pre-/postemergence: nutsedge, yellow; conditions: Postemergence
Text: as §2, §3, §4

[5] = test system: pigweed (Amaranthus retroflexus); test: Test C pre-/postemergence: pigweed; conditions: Postemergence
Text: as §2, §3, §4

[6] = test system: foxtail, giant (giant foxtail, Setaria faberii); test: Test A pre-/postemergence: foxtail, giant; conditions: Setaria faberi, 240 h; for pest or weed control at 125 g/ha: 125 g ai/ha; for pest or weed control at 500 g/ha: 500 g ai/ha
Procedure, shortened: as §1

soybean (Glycine max) = test: Test C pre-/postemergence: soybean; conditions: Postemergence
Text: as §2, §3, §4

[7] = test system: foxtail, giant (giant foxtail, Setaria faberii); test: Test C pre-/postemergence: foxtail, giant; conditions: Postemergence
Text: as §2, §3, §4

[8] = test system: crabgrass, large (large crabgrass, Digitaria sanguinalis); test: Test A pre-/postemergence: crabgrass, large; conditions: Digitaria sanguinalis, 240 h; for pest or weed control at 125 g/ha: 125 g ai/ha; for pest or weed control at 500 g/ha: 500 g ai/ha
Procedure, shortened: as §1

[9] = test system: galium (catchweed bedstraw, Galium aparine); test: Test C pre-/postemergence: galium
Text: as §2, §3, §4

[10] = test system: blackgrass (Alopecurus myosuroides); test: Test C pre-/postemergence: blackgrass
Text: as §2, §3, §4

[11] = test system: velvetleaf (Abutilon theophrasti); test: Test C pre-/postemergence: velvetleaf; conditions: Postemergence
Text: as §2, §3, §4

[12] = post-emergence, Postemergence, 0 to 100 scale, 0 is no effect, 100 is complete control, read-out: Velvetleaf plant response rating
[13] = post-emergence, Postemergence, visual rating on 0 to 100 scale (0 no effect, 100 complete control), approximately ten days, read-out: Velvetleaf plant response rating
[14] = pre-emergence, Preemergence, 0 to 100 scale (0 no effect, 100 complete control), read-out: Plant response rating, Velvetleaf
[15] = pre-emergence, Preemergence, 0 to 100 scale, 0 is no effect, 100 is complete control, read-out: Plant response rating, Velvetleaf
[16] = 31 g ai/ha, scale 0 to 100 (0 no effect, 100 complete control)
[17] = 62 g ai/ha, scale 0 to 100 (0 no effect, 100 complete control)
[18] = 125 g ai/ha, scale 0 to 100, 0 no effect, 100 complete control
[19] = Postemergence, 31 g ai/ha, scale 0 to 100 (0 no effect, 100 complete control)
[20] = Postemergence, 62 g ai/ha, scale 0 to 100 (0 no effect, 100 complete control)
[21] = Postemergence, 125 g ai/ha, scale 0 to 100, 0 no effect, 100 complete control
[22] = Postemergence, 250 g ai/ha, scale 0 to 100
[23] = Preemergence, 31 g ai/ha, scale of 0 to 100, 0 is no effect, 100 is complete control
[24] = Preemergence, 62 g ai/ha, scale of 0 to 100, 0 is no effect, 100 is complete control
[25] = Preemergence, 125 g ai/ha, scale 0 to 100, 0 no effect, 100 complete control
[26] = Preemergence, 250 g ai/ha, scale 0 to 100, 0 no effect, 100 complete control
[27] = post-emergence, Postemergence, 0 to 100 scale, 0 is no effect, 100 is complete control, read-out: Foxtail, Giant plant response rating
[28] = post-emergence, Postemergence, visual rating on 0 to 100 scale (0 no effect, 100 complete control), approximately ten days, read-out: Foxtail, Giant plant response rating
[29] = pre-emergence, Preemergence, 0 to 100 scale (0 no effect, 100 complete control), read-out: Plant response rating, Foxtail, Giant
[30] = pre-emergence, Preemergence, 0 to 100 scale, 0 is no effect, 100 is complete control, read-out: Plant response rating, Foxtail, Giant
[31] = post-emergence, Postemergence, 0 to 100 scale, 0 is no effect, 100 is complete control, read-out: Crabgrass, Large plant response rating
[32] = post-emergence, Postemergence, visual rating on 0 to 100 scale (0 no effect, 100 complete control), approximately ten days, read-out: Crabgrass, Large plant response rating
[33] = pre-emergence, Preemergence, 0 to 100 scale (0 no effect, 100 complete control), read-out: Plant response rating, Crabgrass, Large
[34] = pre-emergence, Preemergence, 0 to 100 scale, 0 is no effect, 100 is complete control, read-out: Plant response rating, Crabgrass, Large

## Cc1nn(-c2ccc(F)cc2)nc1Cc1ccnc(C(F)(F)F)c1 [Compound 16, 4-[[2-(4-fluorophenyl)-5-methyl-2H-1,2,3-triazol-4-yl]methyl]-2-(trifluoromethyl)pyridine]
[1]; [12]
  pest or weed control at 125 g/ha: 100%
[1]; [13]
  pest or weed control at 500 g/ha: 100%
[1]; [14]
  pest or weed control at 125 g/ha: 30%
[1]; [15]
  pest or weed control at 500 g/ha: 80%
[2]; [16]
  Plant response rating, Lambsquarters: 95
[2]; [17]
  Plant response rating, Lambsquarters: 100
[2]; [18]
  Plant response rating, Lambsquarters: 100
[2]; 250 g ai/ha, scale 0 to 100
  Plant response rating, Lambsquarters: 100
[3]; [19]
  Plant response rating, Wheat: 5
[3]; [20]
  Plant response rating, Wheat: 20
[3]; [21]
  Plant response rating, Wheat: 25
[3]; [22]
  Plant response rating, Wheat: 30
[3]; [23]
  Plant response rating, Wheat: 0
[3]; [24]
  Plant response rating, Wheat: 5
[3]; [25]
  Plant response rating, Wheat: 15
[3]; [26]
  Plant response rating, Wheat: 45
[4]; [16]
  Plant response rating, Nutsedge, Yellow: 0
[4]; [17]
  Plant response rating, Nutsedge, Yellow: 0
[4]; [18]
  Plant response rating, Nutsedge, Yellow: 0
[4]; 250 g ai/ha, scale 0 to 100
  Plant response rating, Nutsedge, Yellow: 0
[5]; [16]
  Plant response rating, Pigweed: 75
[5]; [17]
  Plant response rating, Pigweed: 95
[5]; [18]
  Plant response rating, Pigweed: 100
[5]; 250 g ai/ha, scale 0 to 100
  Plant response rating, Pigweed: 100
[6]; [27]
  pest or weed control at 125 g/ha: 90%
[6]; [28]
  pest or weed control at 500 g/ha: 90%
[6]; [29]
  pest or weed control at 125 g/ha: 100%
[6]; [30]
  pest or weed control at 500 g/ha: 100%
Soybean (Glycine max); [16]
  Plant response rating, Soybean: 20
Soybean (Glycine max); [17]
  Plant response rating, Soybean: 25
Soybean (Glycine max); [18]
  Plant response rating, Soybean: 35
Soybean (Glycine max); 250 g ai/ha, scale 0 to 100
  Plant response rating, Soybean: 35
[7]; [16]
  Plant response rating, Foxtail, Giant: 40
[7]; [17]
  Plant response rating, Foxtail, Giant: 40
[7]; [18]
  Plant response rating, Foxtail, Giant: 50
[7]; 250 g ai/ha, scale 0 to 100
  Plant response rating, Foxtail, Giant: 50
[8]; [31]
  pest or weed control at 125 g/ha: 90%
[8]; [32]
  pest or weed control at 500 g/ha: 90%
[8]; [33]
  pest or weed control at 125 g/ha: 90%
[8]; [34]
  pest or weed control at 500 g/ha: 100%
[9]; [19]
  Plant response rating, Galium: 60
[9]; [20]
  Plant response rating, Galium: 65
[9]; [21]
  Plant response rating, Galium: 80
[9]; [22]
  Plant response rating, Galium: 90
[9]; [23]
  Plant response rating, Galium: 100
[9]; [24]
  Plant response rating, Galium: 100
[9]; [25]
  Plant response rating, Galium: 100
[9]; [26]
  Plant response rating, Galium: 100
[10]; [19]
  Plant response rating, Blackgrass: 10
[10]; [20]
  Plant response rating, Blackgrass: 25
[10]; [21]
  Plant response rating, Blackgrass: 40
[10]; [22]
  Plant response rating, Blackgrass: 80
[10]; [23]
  Plant response rating, Blackgrass: 90
[10]; Preemergence, 62 g ai/ha, scale 0 to 100, 0 no effect, 100 complete control
  Plant response rating, Blackgrass: 100
[10]; [25]
  Plant response rating, Blackgrass: 100
[10]; [26]
  Plant response rating, Blackgrass: 100
[11]; [16]
  Plant response rating, Velvetleaf: 10
[11]; [17]
  Plant response rating, Velvetleaf: 65
[11]; [18]
  Plant response rating, Velvetleaf: 65
[11]; 250 g ai/ha, scale 0 to 100
  Plant response rating, Velvetleaf: 85

## COc1nn(-c2ccc(C(F)(F)F)cc2)nc1Cn1ccc(C(F)(F)F)n1 [Compound 17, 4-methoxy-2-[4-(trifluoromethyl)phenyl]-5-[[3-(trifluoromethyl)-1H-pyrazol-1-yl]methyl]-2H-1,2,3-triazole]
[1]; [12]
  pest or weed control at 125 g/ha: 90%
[1]; [13]
  pest or weed control at 500 g/ha: 100%
[1]; [14]
  pest or weed control at 125 g/ha: 30%
[1]; [15]
  pest or weed control at 500 g/ha: 40%
[6]; [27]
  pest or weed control at 125 g/ha: 60%
[6]; [28]
  pest or weed control at 500 g/ha: 80%
[6]; [29]
  pest or weed control at 125 g/ha: 90%
[6]; [30]
  pest or weed control at 500 g/ha: 100%
[8]; [31]
  pest or weed control at 125 g/ha: 90%
[8]; [32]
  pest or weed control at 500 g/ha: 90%
[8]; [33]
  pest or weed control at 125 g/ha: 100%
[8]; [34]
  pest or weed control at 500 g/ha: 100%

## CCc1nn(-c2ccc(C(F)(F)F)cc2)nc1Oc1cccc(OC(F)(F)F)c1 [Compound 125, 4-ethyl-5-[3-(trifluoromethoxy)phenoxy]-2-[4-(trifluoromethyl)phenyl]-2H-1,2,3-triazole]
[1]; [12]
  pest or weed control at 125 g/ha: 30%
[1]; [13]
  pest or weed control at 500 g/ha: 70%
[1]; pre-emergence, Preemergence, 0 to 100 scale where 0 is no effect and 100 is complete control, read-out: Plant response rating, Velvetleaf
  pest or weed control at 125 g/ha: 0%
[1]; [14]
  pest or weed control at 500 g/ha: 50%
[6]; [27]
  pest or weed control at 125 g/ha: 50%
[6]; [28]
  pest or weed control at 500 g/ha: 60%
[6]; pre-emergence, Preemergence, 0 to 100 scale where 0 is no effect and 100 is complete control, read-out: Plant response rating, Foxtail, Giant
  pest or weed control at 125 g/ha: 80%
[6]; [29]
  pest or weed control at 500 g/ha: 90%
[8]; [31]
  pest or weed control at 125 g/ha: 60%
[8]; [32]
  pest or weed control at 500 g/ha: 90%
[8]; pre-emergence, Preemergence, 0 to 100 scale where 0 is no effect and 100 is complete control, read-out: Plant response rating, Crabgrass, Large
  pest or weed control at 125 g/ha: 80%
[8]; [33]
  pest or weed control at 500 g/ha: 90%

Reference: patent US9302999B2, “Substituted triazoles as herbicides” (E. I. DU PONT DE NEMOURS AND COMPANY, priority 2012, dated 2016)
